Assay results: patent publication US20060128757A1, “Pyridine derivatives useful as cyclooxygenase inhibitor” (Astellas Pharma Inc., priority 2001, published 2006)
Where two headings read alike, the source gives them in different places.

Columns and labels:
[1] = target: T1, COX-II (Homo sapiens, UniProt P35354); experiment: Whole blood assay for COX-II (LPS-induced PGE2 production); type: cell-based
T1 construct: lipopolysaccharide for 24 hr at 37° C. for induction of COX-II; endogenous in cells; host or cells: heparinized fresh human whole blood from volunteers, LPS-stimulated for 24 hr (PGE2 read-out)
T1 sequence (P35354 18-604): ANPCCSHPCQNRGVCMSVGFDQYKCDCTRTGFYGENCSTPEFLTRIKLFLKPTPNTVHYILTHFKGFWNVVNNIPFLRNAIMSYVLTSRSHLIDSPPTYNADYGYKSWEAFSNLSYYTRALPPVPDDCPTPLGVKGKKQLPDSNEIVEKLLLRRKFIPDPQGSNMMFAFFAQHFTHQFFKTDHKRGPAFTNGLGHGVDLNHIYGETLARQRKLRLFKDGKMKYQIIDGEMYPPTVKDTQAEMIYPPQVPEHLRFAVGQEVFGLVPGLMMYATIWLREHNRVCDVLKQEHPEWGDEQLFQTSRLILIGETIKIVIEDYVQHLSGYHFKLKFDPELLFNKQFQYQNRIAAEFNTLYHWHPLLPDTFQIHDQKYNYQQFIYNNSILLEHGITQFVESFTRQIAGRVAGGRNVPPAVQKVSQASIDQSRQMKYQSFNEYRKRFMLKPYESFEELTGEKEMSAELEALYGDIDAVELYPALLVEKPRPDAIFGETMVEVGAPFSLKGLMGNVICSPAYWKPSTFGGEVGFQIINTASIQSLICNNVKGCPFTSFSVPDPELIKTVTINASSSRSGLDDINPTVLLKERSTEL
Procedure: Fresh blood was collected in heparinized tubes by syringe from volunteers with consent. The subjects had no apparent inflammatory conditions and had not taken any medication for at least 7 days prior to blood collection. 500 μl aliquots of human whole blood were incubated with either 2 μl dimethyl sulfoxide vehicle or 2 μl of a test compound at final concentrations for 15 min at 37° C. This was followed by incubation of the blood with 10 μl of 5 mg/ml lipopolysaccharide for 24 hr at 37° C. for induction of COX-II. Appropriate PBS treatments (no LPS) were used as blanks. At the end of the incubation, the blood was centrifuged at 6000×g for 5 min at 4° C. to obtain plasma. A 100 μl aliquot of plasma was mixed with 400 μl methanol for protein precipitation. The supernatant was obtained by centrifuging at 6000×g for 5 min at 4° C. and was assayed for prostagrandin E2 (PGE2) using a radioimmunoassay kit after conversion of PGE2 to its methyl oximate derivative according to the manufacturer's procedure. For a test compound, the results were expressed as percent inhibition of PGE2 production relative to control incubations containing dimethyl sulfoxide vehicle. The data were analyzed by that a test compound at the indicated concentrations was changed log value and was applied simple linear regression. IC50 value was calculated by least squares method.

[2] = target: T2, COX-I (Homo sapiens, UniProt P23219); experiment: Whole blood assay for COX-I (TXB2 production); type: cell-based
T2 construct: Fresh blood was collected by syringe without anticoagulants from volunteers with consent; endogenous in cells; host or cells: fresh human whole blood from volunteers, left to clot (TXB2 read-out)
T2 sequence (P23219 24-599): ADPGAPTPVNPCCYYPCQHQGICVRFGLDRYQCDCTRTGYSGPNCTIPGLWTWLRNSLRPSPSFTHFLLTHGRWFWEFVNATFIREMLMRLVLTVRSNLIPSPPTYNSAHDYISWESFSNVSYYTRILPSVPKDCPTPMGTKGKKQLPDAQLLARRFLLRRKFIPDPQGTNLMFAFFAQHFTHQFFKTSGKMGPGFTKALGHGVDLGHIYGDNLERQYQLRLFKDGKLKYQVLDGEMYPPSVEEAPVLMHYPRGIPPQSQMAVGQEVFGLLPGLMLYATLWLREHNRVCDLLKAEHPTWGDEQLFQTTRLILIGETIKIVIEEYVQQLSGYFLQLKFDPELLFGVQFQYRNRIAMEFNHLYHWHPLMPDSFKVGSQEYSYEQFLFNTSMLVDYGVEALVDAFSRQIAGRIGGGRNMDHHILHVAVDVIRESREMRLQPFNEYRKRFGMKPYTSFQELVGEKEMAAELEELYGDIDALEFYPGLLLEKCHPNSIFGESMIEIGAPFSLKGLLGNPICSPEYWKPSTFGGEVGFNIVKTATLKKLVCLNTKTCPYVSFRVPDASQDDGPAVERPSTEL
Procedure: Fresh blood was collected by syringe without anticoagulants from volunteers with consent. The subjects had no apparent inflammatory conditions and had not taken any medication for at least 7 days prior to blood collection. 500 μl aliquots of human whole blood were immediately incubated with 2 μl of either dimethyl sulfoxide vehicle or a test compound at final concentrations for 1 hr at 37° C. to allow the blood to clot. Appropriate treatments (no incubation) were used as blanks. […] The blood was centrifuged at 6000×g for 5 min at 4° C. to obtain serum. A 100 μl aliquot of serum was mixed with 400 μl methanol for protein precipitation. The supernatant was obtained by centrifuging at 6000×g for 5 min at 4° C. and was assayed for TXB2 using an enzyme immunoassay kit according to the manufacturer's procedure. For a test compound, the results were expressed as percent inhibition of thromboxane B2 (TXB2) production relative to control incubations containing dimethyl sulfoxide vehicle. The data were analyzed by that a test compound at the indicated concentrations was changed log value and was applied simple linear regression. IC50 value was calculated by least squares method.

[3] = test system: stomachs (gastric lesions) of rats; experiment: Gastric ulcerogenic activity in rats; type: in vivo, Male Sprague-Dawley rats; settings: oral, 5 h before autopsy, rats fasted 24 h
Procedure: Male Sprague-Dawley rats were used after a 24 h fast. Drugs were orally administered to groups of 10 rats 5 h before autopsy. The stomachs were macroscopically inspected and scored as follows: 0, no evidence of gastric lesions; 1, spotty submucosal hemorrhage or appearance of erosion; 3, widespread adherence of blood and large areas of submucosal hemorrhage or one to four small ulcers; 4, more than four small ulcers or one large ulcer; 5, numerous large ulcers.

[4] = test system: Adjuvant Arthritis in Rats; experiment: Analgesic activity: effect on adjuvant arthritis in rats (Randall-Selitto); type: in vivo, Lewis rats; settings: ratio of threshold pressure of treated vs non-treated rats
[5] = test system: Stretching responses in mice; experiment: Stretching test (acetic acid i.p.); type: in vivo, Male ddY mice; settings: 10 mg/Kg orally, acetic acid i.p. 1 h after drug
Procedure: Male ddY mice were used after a 24 h fast. Drugs were orally administered to groups of 10 mice. Mice were injected intraperitoneally (i.p.) with 0.2 ml/10 g of 0.6% acetic acid 1 h after the drug administration and then placed singly in a plastic animal cage. Stretching responses, defined as constriction of the abdomen with stretching of the hind limbs, were counted for 10 min from 3 min after the i.p. injection of acetic acid.

[6] = LPS 24 hr, read-out: COX-II IC50
[7] = 1 hr at 37° C., read-out: COX-I IC50

| IC50 [1, 6] | IC50 [2, 7] | Compound | Gastric ulcerogenic activity (Non-toxic dose) [3] | other results |
| --- | --- | --- | --- | --- |
| > 1 µM | < 0.1 µM | COc1ccc(-c2cc(C#N)c(Cl)nc2-c2ccc(OC)cc2)cc1 [Example 1-(3), 2-chloro-5-(4-methoxyphenyl)-6-(4-methoxyphenyl) pyridine-3-carbonitrile] | – | – |
| > 1 µM | < 0.1 µM | COc1ccc(-c2cc(C#N)c(OC)nc2-c2ccc(OC)cc2)cc1 [Example 6, 2-methoxy-5-(4-methoxyphenyl)-6-(4-methoxyphenyl)-pyridine-3-carbonitrile] | – | – |
| – | – | CC(C(=O)O)c1cccc(C(=O)c2ccccc2)c1 (centres unmarked) [G, Ketoprofen] | 3.2 mg/kg | – |
| – | – | COc1ccc(-c2noc(CC(=O)O)c2-c2ccc(OC)cc2)cc1 [H, Mofezolac] | 10 mg/kg | – |
| – | – | COc1ccc2c(c1)c(CC(=O)O)c(C)n2C(=O)c1ccc(Cl)cc1 [I, Indomethacin] | 1 mg/kg | – |
| – | – | O=C(O)Cc1ccccc1Nc1c(Cl)cccc1Cl [J, Diclofenac] | 3.2 mg/kg | – |

| Compound | IC50 [1, 6] | IC50 [2, 7] | Gastric ulcerogenic activity (Non-toxic dose) [3] | other results |
| --- | --- | --- | --- | --- |
| COc1ccc(-c2cc(C#N)cnc2-c2ccc(OC)cc2)cc1 [Example 4, 5-(4-methoxyphenyl)-6-(4-methoxyphenyl)-pyridine-3-carbonitrile] | > 1 µM | < 0.1 µM | >100 mg/kg | melting point: 107 to 108 °C; IC50 ([1]; Table 1, read-out: Whole blood assay (IC50: μM) COX-II): 1.9 µM; Analgesic activity in adjuvant arthritis -3.2 mg/Kg- ([4]; 3.2 mg/Kg, 2 hr after administration): 1.57; The coefficient of analgesic ([4]; Dose 3.2 mg/kg, pain threshold 2 hr after administration, ratio of 1.5 = effective dose): >1.5; IC50 ([2]; Table 1, read-out: Whole blood assay (IC50: μM) COX-I): 0.017 µM; Inhibiting activity in stretching test [5]: 48% |
